Laboratory results: US20230159511A1, “TETRAHYDROISOQUINOLINE COMPOUNDS AS NRF2 ACTIVATORS” (C4X Discovery Limited, priority 2020, published 2023)

Tests used:
[1] = molecular target: T1, human KEAP1 (N-term, residues 321-609) (Homo sapiens, UniProt Q14145); experiment: KEAP1 Kelch Fluorescence Polarization (FP) Assay; assay type: binding; conditions: inhibition of Kelch domain-NRF2 interaction; 2 nM FITC-labelled NRF2 peptide, 25 nM KEAP1, 1 h room temperature; compounds below 10 nM cannot be differentiated
T1 construct: human KEAP1 (N-term, residues 321-609)
Experimental: KEAP1 Kelch Fluorescence Polarization (FP) Assay Method
Inhibition of the Kelch domain-NRF2 interaction was determined using a fluorescence polarization-based competition assay in a black 384-well microplate. Compounds were tested at a starting concentration of 10 μM serially diluted 1:3 to generate a 12-point dose response curve on the Biomek FX robot. Each well contained 2 nM FITC-labelled NRF2 peptide (FITC-LDEETGEFL-NH2) and 25 nM human KEAP1 (N-term, residues 321-609) enzyme in a final volume of 20 μL of assay buffer (50 mM Tris-HCl pH 8.0, 100 mM NaCl, 5 mM MgCl2, 0.005% Tween-20, 0.005% BSA, 0.5% DMSO) in the presence of varying concentrations of test compound. Unlabelled peptide (LDEETGEFL-NH2) at 50 μM (negative control) and 0.5% DMSO (positive control) was used to determine the assay window.
After 1 h at room temperature, fluorescence polarization (excitation 470 nm/emission 530 nm) was measured using an Envision plate reader. IC50 values were determined by fitting the data to a four parameter logistic fit using XLfit or XE Runner within ActivityBase. The assay limit is such that compounds below 10 nM cannot be differentiated.

[2] = system: NRF2 mediated gene NAD(P)H:quinone acceptor oxidoreductase 1 (NQO1) in BEAS-2B cells; experiment: Beas2B NQO1 mRNA Cell Based Assay; design: species or system human; conditions: Homo sapiens; BEAS-2B cells, compound for 24 h; increase in NQO1 mRNA compared to vehicle (0.1% DMSO) control; read-out: EC50
Experimental: Beas2B NQO1 mRNA Cell Based Assay
The up regulation of the NRF2 mediated gene NAD(P)H:quinone acceptor oxidoreductase 1 (NQO1) was measured using the following assay method: BEAS-2B cells (ATCC CRL-9609) were plated in 96-well clear plates at 20,000 cells/well in 75 μL of cell culture media and incubated overnight (37° C., 5% CO2). On day 2, 25 μL of compound or controls were added to the cells for 24 h. On day 3, the medium was aspirated from the plate and the Cells-to-CT™ 1-Step TaqMan® Kit (Ambion A25603) was used to perform expression analysis directly from cultured cells without RNA purification according to the manufacturer's instructions.
Briefly, cells were washed with ice cold PBS and 22.5 μL of room-temperature DNase/Lysis solution was added to the cells and incubated at room temperature for 5 minutes. To stop the reaction, 2.25 μL of stop solution was added to the cell lysate. The samples were diluted 1:5 using nuclease free water and 2.5 μL transferred into the PCR plate. Real-time PCR was performed using the C-1000 Thermal Cycler (Bio-Rad) using human beta actin as the internal control. The cDNA was amplified with a specific primer for NQO1 using the 1-step RT-PCR master mix (Ambion Cells-to-CTTM 1-Step TaqMan® Kit A25603). The primers/probes sets that were used for amplification of cDNA were obtained from TaqMan Gene Expression Assays (Applied Biosystems). The comparative CT (ΔΔCT) relative quantification method was used to calculate the relative mRNA level of the target gene NQO1 as described in the Applied Biosystems Chemistry Guide. The data are expressed as an increase in target gene mRNA compared to vehicle (0.1% DMSO) control and the EC50 values were determined by fitting the data to a four parameter logistic fit using XLfit or XE Runner within ActivityBase.

T1 sequence (Q14145 321-609): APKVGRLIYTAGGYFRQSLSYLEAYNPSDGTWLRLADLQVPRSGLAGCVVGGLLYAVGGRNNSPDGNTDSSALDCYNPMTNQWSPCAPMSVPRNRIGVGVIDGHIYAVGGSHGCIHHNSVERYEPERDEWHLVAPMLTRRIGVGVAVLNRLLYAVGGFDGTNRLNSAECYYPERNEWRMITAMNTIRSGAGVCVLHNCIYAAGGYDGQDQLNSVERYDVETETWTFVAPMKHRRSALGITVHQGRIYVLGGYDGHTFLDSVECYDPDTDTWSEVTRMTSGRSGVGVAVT

SMILES	IC50 [1]	EC50 [2]
CNC(=O)C1CCCC1C(=O)N1CCc2c(Cl)ccc(OCc3nnn(C)c3C(F)F)c2[C@H]1CN1CCCC1=O (single isomer, unassigned) [Example 65]	18 nM	1860 nM
CNC(=O)C1OCCC1C(=O)N1CCc2c(Cl)ccc(OCc3nnn(C)c3C(F)F)c2[C@H]1CN1CCCC1=O (single isomer, unassigned) [Example 82]	4070 nM	1740 nM
CNC(=O)[C@@]1(C)CCC[C@H]1C(=O)N1CCc2c(Cl)ccc(OCc3nnn(C)c3C(F)F)c2[C@H]1CN1CCC(C)C1=O (single isomer, unassigned) [Example 95]	23 nM	565 nM
CNC(=O)[C@@]1(C)CCCC[C@H]1C(=O)N1CCc2c(Cl)ccc(OCc3nnn(C)c3C(F)F)c2[C@H]1CN1CCC(C)C1=O (single isomer, unassigned) [Example 96]	37 nM	3190 nM
NC(=O)[C@H]1CCCC[C@H]1C(=O)N1CCc2cccc(OCCCC(=O)N3CCCC3)c2[C@H]1CN1C(=O)c2ccccc2C1=O [Example 1, (1S,2R)-2-((S)-1-((1 ,3-dioxoisoindolin-2-yl)methyl)-8-(4-oxo-4-(pyrrolidin-1-yl)butoxy)-1,2,3,4-tetrahydroisoquinoline-2-carbonyl)cyclohexane-1-carboxamide]	901 nM	2030 nM
CCNC(=O)[C@H]1CCCC[C@H]1C(=O)N1CCc2cccc(OCCNC(=O)c3cc(C)on3)c2[C@H]1CN1C(=O)c2ccccc2C1=O [Example 6, N-(2-(((S)-1-((1,3-dioxoisoindolin-2-yl)-methyl)-2((1R,2S)-2-(ethylcarbamoyl)cyclohexane-1-carbonyl)-1,2,3,4-tetrahydroisoguinolin-8-yl)oxy)ethyl)-5-methylisoxazole-3-carboxamide]	196 nM	2360 nM
CNC(=O)[C@H]1CCCC[C@H]1C(=O)N1CCc2cccc(O[C@H]3CCN(C(=O)c4cncs4)C3)c2[C@H]1CN1C(=O)c2ccccc2C1=O [Example 17, (1S,2R)-2-((S)-1-((1,3-dioxoisoindolin-2-yl)methyl)-8-(((S)-1-(thiazole-5-carbonyl)pyrrolidin-3-yl)oxy)-1,2,3,4-tetrahydroisoquinoline-2-carbonyl)-N-methylcyclohexane-1-carboxamide]	28 nM	3070 nM
CNC(=O)[C@H]1CCCC[C@H]1C(=O)N1CCc2cccc(O[C@H]3CCN(C(=O)c4cc(C)on4)C3)c2[C@H]1CN1C(=O)c2ccccc2C1=O [Example 20, (1S,2R)-2-((S)-1-((1,3-dioxoisoindolin-2-yl)methyl)-8-(((S)-1-(5-methylisoxazole-3-carbonyl)pyrrolidin-3-yl)oxy)-1,2,3,4-tetrahydroisoquinoline-2-carbonyl)-N-methylcyclohexane-1-carboxamide]	29 nM	> 500 nM
O=C(NCC(F)(F)CO)[C@H]1CCCC[C@H]1C(=O)N1CCc2cccc(O[C@H]3CCN(C(=O)c4cncs4)C3)c2[C@H]1CN1C(=O)c2ccccc2C1=O [Example 34, (1S,2R)-N-(2,2-difluoro-3-hydroxypropyl)-2-((S)-1-((1,3-dioxoisoindolin-2-yl)methyl)-8-(((S)-1-(thiazole-5-carbonyl)pyrrolidin-3-yl)oxy)-1,2,3,4-tetrahydroisoquinoline-2-carbonyl)cyclohexane-1-carboxamide]	36 nM	193 nM
CCNC(=O)[C@H]1CCCC[C@H]1C(=O)N1CCc2cccc(O[C@H]3CCN(C(=O)c4cncs4)C3)c2[C@H]1CN1C(=O)c2ccccc2C1=O [Example 42, (1S,2R)-2-((S)-1-((1,3-dioxoisoindolin-2-yl)methyl)-8-(((S)-1-(thiazole-5-carbonyl)pyrrolidin-3-yl)oxy)-1,2,3,4-tetrahydroisoquinoline-2-carbonyl)-N-ethylcyclohexane-1-carboxamide]	53 nM	580 nM
COC(=O)N1CCC[C@H]1C(=O)N1CCc2cccc(O[C@H]3CCN(C(=O)c4cncs4)C3)c2[C@H]1CN1C(=O)c2ccccc2C1=O [Example 51, methyl (S)-2-((S)-1-((1,3-dioxoisoindolin-2-yl)methyl)-8-(((S)-1-(thiazole-5-carbonyl)pyrrolidin-3-yl)oxy)-1,2,3,4-tetrahydroisoquinoline-2-carbonyl)pyrrolidine-1-carboxylate]	1700 nM	
CNC(=O)[C@H]1CCCC[C@H]1C(=O)N1CCc2c(Cl)ccc(OCc3noc4ccccc34)c2[C@H]1CN1CCCC1=O [Example 52, (1S,2R)-2-((S)-8-(benzo[d]isoxazol-3-ylmethoxy)-5-chloro-1-((2-oxopyrrolidin-1-yl)methyl)-1,2,3,4-tetrahydroisoquinoline-2-carbonyl)-N-methylcyclohexane-1-carboxamide]	38 nM	285 nM
CCNC(=O)[C@H]1CCCC[C@H]1C(=O)N1CCc2c(Cl)ccc(OCc3noc4ccccc34)c2[C@H]1CN1CCCC1=O [Example 53, (1S,2R)-2-((S)-8-(benzo[d]isoxazol-3-ylmethoxy)-5-chloro-1-((2-oxopyrrolidin-1-yl)methyl)-1,2,3,4-tetrahydroisoquinoline-2-carbonyl)-N-ethylcyclohexane-1-carboxamide]	47 nM	189 nM
NC(=O)[C@H]1CCCC[C@H]1C(=O)N1CCc2c(Cl)ccc(OCc3noc4ccccc34)c2[C@H]1CN1CCCC1=O [Example 54, (1S,2R)-2-((S)-8-(benzo[d]isoxazol-3-ylmethoxy)-5-chloro-1-((2-oxopyrrolidin-1-yl)methyl)-1,2,3,4-tetrahydroisoquinoline-2-carbonyl)cyclohexane-1-carboxamide, reference compound]	31 nM	135 nM
CNC(=O)[C@H]1CCCC[C@H]1C(=O)N1CCc2c(Br)ccc(OCc3noc(C(C)C)n3)c2[C@H]1CN1CCCC1=O [Example 55, (1S,2R)-2-((S)-5-bromo-8-((5-isopropyl-1,2,4-oxadiazol-3-yl)methoxy)-1-((2-oxopyrrolidin-1-yl)methyl)-1,2,3,4-tetrahydroisoquinoline-2-carbonyl)-N-methylcyclohexane-1-carboxamide]	54 nM	330 nM
CNC(=O)[C@H]1CCCC[C@H]1C(=O)N1CCc2c(Br)ccc(OCc3nnn(C)c3C(F)F)c2[C@H]1CN1Cc2ccccc2C1=O [Example 56, (1S,2R)-2-((S)-5-bromo-8-((5-(difluoromethyl)-1-methyl-1H-1,2,3-triazol-4-yl)methoxy)-1-((1-oxoisoindolin-2-yl)methyl)-1,2,3,4-tetrahydroisoquinoline-2-carbonyl)-N-methylcyclohexane-1-carboxamide]	13 nM	124 nM
CNC(=O)[C@H]1CCCC[C@H]1C(=O)N1CCc2c(Cl)ccc(OCc3noc(C(C)C)n3)c2[C@H]1CN1CCCC1=O [Example 57, (1S,2R)-2-((S)-5-chloro-8-((5-isopropyl-1,2,4-oxadiazol-3-yl)methoxy)-1-((2-oxopyrrolidin-1-yl)methyl)-1,2,3,4-tetrahydroisoquinoline-2-carbonyl)-N-methylcyclohexane-1-carboxamide]	112 nM	4000 nM
CNC(=O)[C@H](C)[C@@H](C)C(=O)N1CCc2c(Cl)ccc(OCc3noc(C(C)C)n3)c2[C@H]1CN1CCCC1=O [Example 59, (2R,3R)-4-((S)-5-chloro-8-((5-isopropyl-1,2,4-oxadiazol-3-yl)methoxy)-1-((2-oxopyrrolidin-1-yl)methyl)-3,4-dihydroisoquinolin-2(1H)-yl)-N,2,3-trimethyl-4-oxobutanamide]	533 nM	
